Experimental data from paper PMC11237035, “Glutathione determines chronic myeloid leukemia vulnerability to an inhibitor of CMPK and TMPK” (Communications Biology, 2024).
Where “and” joins values, the source holds several entries; their conditions need not be identical. Equal values may be shown once.

How the values were obtained:
untransformed 32D cells [1] = assay: CCK-8 cell viability assay, untransformed 32D cells; format: cell-based, mouse; conditions: for viability (0 = 100): Untransformed, single replicates; for sensitivity compared among WT-, T315I-Bcr-Abl-32D and untransformed 32D progenitor cells: viability assays
Protocol: After 72 h, viability assays were performed.
3 independent experiments. Asterisks denote ***p<0.001 from non-paired two-tailed

WT-Bcr-Abl-32D cells [2] = assay: CCK-8 cell viability assay, WT-Bcr-Abl-32D cells; format: cell-based, mouse; conditions: WT-Bcr-Abl, single replicates
T315I-Bcr-Abl-32D cells [3] = assay: CCK-8 cell viability assay, T315I-Bcr-Abl-32D cells; format: cell-based, mouse; conditions: T315I-Bcr-Abl, single replicates
hTMPK = biological target: T1, hTMPK (Homo sapiens, UniProt P23919); assay: biochemical
T1 sequence (P23919 1-212): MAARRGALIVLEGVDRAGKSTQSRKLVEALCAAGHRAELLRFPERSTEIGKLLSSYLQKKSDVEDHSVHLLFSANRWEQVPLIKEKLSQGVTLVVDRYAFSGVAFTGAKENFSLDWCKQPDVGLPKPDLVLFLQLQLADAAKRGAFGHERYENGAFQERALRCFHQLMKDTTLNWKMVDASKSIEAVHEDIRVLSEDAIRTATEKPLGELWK
Protocol: Activity assay was measured using the spectrophotometric method by coupling ADP formation to NADH oxidation catalyzed by pyruvate kinase and lactate dehydrogenase as described previously[20]. Each reaction contained 0.4 μg TMPK or 0.3 μg CMPK was incubated at 25 °C followed by using Tecan Spark 10 microplate reader to detect the change in NADH measurement at 340 nm absorption according to the manufacturer’s instructions.

T315I-Bcr-Abl-32D cells [4] = assay: Western blot of tyrosine phosphorylation and Bcr-Abl downstream signaling, T315I-Bcr-Abl-32D cells; format: cell-based, mouse
Description: (§1) Supplementary Figure 1. Bcr-Abl-activated downstream signaling in WT- and
(§2) The comparison of Bcr-Abl downstream signaling (Akt, mTorC1, and Stat5) in WT- […]

WT-Bcr-Abl-32D cells [5] = assay: Western blot of tyrosine phosphorylation and Bcr-Abl downstream signaling, WT-Bcr-Abl-32D cells; format: cell-based, mouse
Description: as §1, §2

untransformed 32D cells [6] = assay: Western blot of tyrosine phosphorylation, untransformed 32D cells; format: cell-based, mouse; conditions: 32D progenitor cells, 2 μM, 4 h, pY99 Western blot

## O=c1[nH]cc(F)c(=O)[nH]1 [Compound 5-FU, 5-Fluorouracil]
Untransformed 32D cells [1]; 5-FU 50 nM
  viability (0 = 100): 73.4167 and 117.13 and 106.182 and 85.6469
Untransformed 32D cells [1]; 5-FU 100 nM
  viability (0 = 100): 72.9576 and 93.7766 and 105.148 and 51.3899
Untransformed 32D cells [1]; 5-FU 200 nM
  viability (0 = 100): 35.4417 and 92.003 and 84.6699 and 48.1556
Untransformed 32D cells [1]; 5-FU 400 nM
  viability (0 = 100): 6.096 and 36.2787 and 21.177 and 24.9913
Untransformed 32D cells [1]
  sensitivity compared among WT-, T315I-Bcr-Abl-32D and untransformed 32D progenitor cells: similar
WT-Bcr-Abl-32D cells [2]; 5-FU 50 nM
  viability (0 = 100): 107.177 and 94.9972 and 84.194 and 79.9956
WT-Bcr-Abl-32D cells [2]; 5-FU 100 nM
  viability (0 = 100): 65.5177 and 99.8323 and 74.733 and 69.6887
WT-Bcr-Abl-32D cells [2]; 5-FU 200 nM
  viability (0 = 100): 39.9892 and 67.384 and 54.7054 and 48.7266
WT-Bcr-Abl-32D cells [2]; 5-FU 400 nM
  viability (0 = 100): 24.7745 and 56.1347 and 30.6822 and 26.6217
T315I-Bcr-Abl-32D cells [3]; Mus musculus, 5-FU 50 nM, read-out: viability (0 = 100)
  viability at 0.05 µM: 84.6%
T315I-Bcr-Abl-32D cells [3]; Mus musculus, 5-FU 400 nM, read-out: viability (0 = 100)
  viability at 0.4 µM: 15%
T315I-Bcr-Abl-32D cells [3]; 5-FU 50 nM
  viability (0 = 100): 83.5736 and 80.5085 and 76.4058
T315I-Bcr-Abl-32D cells [3]; 5-FU 100 nM
  viability (0 = 100): 62.3323 and 96.9038 and 91.1488 and 80.2051
T315I-Bcr-Abl-32D cells [3]; 5-FU 200 nM
  viability (0 = 100): 35.7891 and 57.1142 and 42.6177 and 58.9854
T315I-Bcr-Abl-32D cells [3]; 5-FU 400 nM
  viability (0 = 100): 14.7128 and 7.825 and 11.0955

## CC(C)(C)OC(=O)N1CCN(C(=O)Cn2sc3ccccc3c2=O)CC1 [JMF2977]
hTMPK
  IC50: 290 nM

## Nc1ccn([C@@H]2O[C@H](CO)[C@@H](O)[C@@H]2O)c(=O)n1 [ara-C, cytosine arabinoside]
Untransformed 32D cells [1]; AraC 0.25 μM
  viability (0 = 100): 80.5922 and 25.4877 and 20.7295
Untransformed 32D cells [1]; AraC 0.5 μM
  viability (0 = 100): 32.0177 and 10.1455 and 8.811
Untransformed 32D cells [1]; AraC 1 μM
  viability (0 = 100): 12.3749 and 4.297 and 2.7153
Untransformed 32D cells [1]; AraC 2 μM
  viability (0 = 100): 4.929 and -0.8077 and -0.4748
Untransformed 32D cells [1]
  sensitivity compared among WT-, T315I-Bcr-Abl-32D and untransformed 32D progenitor cells: similar
WT-Bcr-Abl-32D cells [2]; AraC 0.25 μM
  viability (0 = 100): 45.2109 and 73.8346 and 101.332
WT-Bcr-Abl-32D cells [2]; AraC 0.5 μM
  viability (0 = 100): 24.4529 and 41.8769 and 43.1257
WT-Bcr-Abl-32D cells [2]; AraC 1 μM
  viability (0 = 100): 7.238 and 10.5227 and 12.1803
WT-Bcr-Abl-32D cells [2]; AraC 2 μM
  viability (0 = 100): 1.535 and 1.964 and 2.059
T315I-Bcr-Abl-32D cells [3]; AraC 0.25 μM
  viability (0 = 100): 91.0147 and 59.6875 and 56.2982
T315I-Bcr-Abl-32D cells [3]; AraC 0.5 μM
  viability (0 = 100): 23.443 and 24.5051 and 17.9316
T315I-Bcr-Abl-32D cells [3]; AraC 1 μM
  viability (0 = 100): 4.479 and 5.149 and 3.231
T315I-Bcr-Abl-32D cells [3]; AraC 2 μM
  viability (0 = 100): 0.8258 and 1.3128 and 0.8788

## Cc1ccc(C(=O)Nc2ccc(CN3CCN(C)CC3)c(C(F)(F)F)c2)cc1C#Cc1cnc2cccnn12 [ponatinib]
T315I-Bcr-Abl-32D cells [4]
  Bcr-Abl downstream signals (pAkt-S473, pS6K-T389, pStat5-Y694): abolished these signals
  level of overall tyrosine phosphorylation: reduced
WT-Bcr-Abl-32D cells [5]
  Bcr-Abl downstream signals (pAkt-S473, pS6K-T389, pStat5-Y694): abolished these signals
  level of overall tyrosine phosphorylation: reduced
Untransformed 32D cells [6]
  basal level of tyrosine phosphorylation: also reduced
